Results reported in patent US20190185518A9, “WARHEAD-CONTAINING PEPTIDOMIMETIC MACROCYCLES AS MODULATORS OF BFL-1” (AILERON Therapeutics, Inc., priority 2017, published 2019).
Starred links: 1 amine or outer side, 2 acyl side, 3 side chain; linkers in the order of their positions; H or OH if unused. Positions of bridges follow the written chain, without caps; N, C: chain ends. Non-standard residues stand in square brackets, D forms with d. Residues, ends and D or L forms follow the SMILES beside them. Phe(4-F) = N[C@@H](Cc1ccc(F)cc1)C(=O)O; 2Nal = N[C@@H](Cc1ccc2ccccc2c1)C(=O)O; X1 = CC(C)CCC[C@H](N[*:1])C(=O)[*:2]; R8 = C=CCCCCCC[C@@](C)(N)C(=O)O; S5 = C=CCCC[C@](C)(N)C(=O)O

biological target: Mcl-1 (Homo sapiens, UniProt Q07820); assay: Ki determination for Mcl-1 (BCL-2 family binding spectrum); conditions: read-out: Ki MCL-1
Sequence (Q07820 whole entry, species assumed): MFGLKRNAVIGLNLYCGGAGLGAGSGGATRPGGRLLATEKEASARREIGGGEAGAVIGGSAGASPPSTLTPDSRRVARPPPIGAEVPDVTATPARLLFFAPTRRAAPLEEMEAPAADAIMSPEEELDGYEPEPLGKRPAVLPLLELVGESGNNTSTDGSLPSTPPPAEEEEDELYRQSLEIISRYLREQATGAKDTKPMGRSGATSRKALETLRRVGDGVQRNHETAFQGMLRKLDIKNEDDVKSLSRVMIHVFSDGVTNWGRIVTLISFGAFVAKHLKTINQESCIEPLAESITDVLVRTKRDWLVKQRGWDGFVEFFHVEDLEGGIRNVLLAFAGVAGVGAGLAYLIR
Description: To assess the binding and affinity of compounds that antagonize the interaction between a peptide and an acceptor protein, a fluorescence polarization assay (FPA) utilizing a fluoresceinated peptidomimetic macrocycle derived from a peptidomimetic precursor sequence is used, for example. The FPA technique measures the molecular orientation and mobility using polarized light and fluorescent tracer. […] A compound that antagonizes the interaction between the fluoresceinated peptidomimetic macrocycle and an acceptor protein will be detected in a competitive binding FPA experiment.
Antagonist binding activity is measured, for example, by fluorescence polarization on a luminescence spectrophotometer (e.g. Perkin-Elmer LS50B). Kd values may be determined by nonlinear regression analysis using, for example, Graphpad Prism software (GraphPad Software, Inc., San Diego, Calif.).

Compound	Ki [nM]
CC[C@H](C)[C@H](NC(C)=O)C(=O)N[C@@H](Cc1c[nH]cn1)C(=O)N[C@H](C(=O)N[C@@H](C)C(=O)N[C@@H](C)C(=O)N[C@@H](C)C(=O)N[C@@H](CC(C)C)C(=O)N[C@@H](CCCNC(=N)N)C(=O)N[C@]1(C)CCCCCCC=CCCC[C@@](C)(C(=O)N[C@@H](Cc2ccc(O)cc2)C(=O)N[C@@H](Cc2ccc(O)cc2)C(=O)N[C@@H](C)C(N)=O)NC(=O)[C@H](CC(N)=O)NC(=O)[C@H](Cc2ccccc2)NC(=O)[C@H](C)NC(=O)[C@H](CC(=O)O)NC(=O)CNC(=O)[C@H]([C@@H](C)CC)NC1=O)[C@@H](C)CC [compound 1727] (Ac-IHIAAALR[R8]IGDAFN[S5]YYA-NH2; staple 9-16)	6.6
CC[C@H](C)[C@H](NC(=O)[C@H](Cc1c[nH]c2ccccc12)NC(=O)[C@H](C)NC(C)=O)C(=O)N[C@@H](C)C(=O)N[C@@H](C)C(=O)N[C@@H](C)C(=O)N[C@@H](CC(C)C)C(=O)N[C@@H](CCCNC(=N)N)C(=O)N[C@]1(C)CCCCCCC=CCCC[C@@](C)(C(=O)N[C@@H](Cc2ccc(O)cc2)C(=O)N[C@@H](Cc2ccc(O)cc2)C(=O)N[C@@H](C)C(N)=O)NC(=O)[C@H](CC(N)=O)NC(=O)[C@H](Cc2ccccc2)NC(=O)[C@H](C)NC(=O)[C@H](CC(=O)O)NC(=O)CNC(=O)[C@H]([C@@H](C)CC)NC1=O [compound 1722] (Ac-AWIAAALR[R8]IGDAFN[S5]YYA-NH2; staple 9-16)	3.8
CC[C@H](C)[C@H](NC(=O)[C@H](Cc1c[nH]c2ccccc12)NC(=O)[C@H](Cc1c[nH]cn1)NC(C)=O)C(=O)N[C@@H](C)C(=O)N[C@@H](C)C(=O)N[C@@H](C)C(=O)N[C@@H](CC(C)C)C(=O)N[C@@H](CCCNC(=N)N)C(=O)N[C@]1(C)CCCCCCC=CCCC[C@@](C)(C(=O)N[C@@H](Cc2ccc(O)cc2)C(=O)N[C@@H](Cc2ccc(O)cc2)C(=O)N[C@@H](C)C(N)=O)NC(=O)[C@H](CC(N)=O)NC(=O)[C@H](Cc2ccccc2)NC(=O)[C@H](C)NC(=O)[C@H](CC(=O)O)NC(=O)CNC(=O)[C@H]([C@@H](C)CC)NC1=O [compound 1719] (Ac-HWIAAALR[R8]IGDAFN[S5]YYA-NH2; staple 9-16)	3.6
CC[C@H](C)[C@H](NC(C)=O)C(=O)N[C@@H](Cc1c[nH]c2ccccc12)C(=O)N[C@H](C(=O)N[C@@H](C)C(=O)N[C@@H](C)C(=O)N[C@@H](C)C(=O)N[C@@H](CC(C)C)C(=O)N[C@@H](CCCNC(=N)N)C(=O)N[C@]1(C)CCCCCCC=CCCC[C@@](C)(C(=O)N[C@@H](Cc2ccc(O)cc2)C(=O)N[C@@H](Cc2ccc(O)cc2)C(=O)N[C@@H](CCC(=O)O)C(N)=O)NC(=O)[C@H](CC(N)=O)NC(=O)[C@H](Cc2ccccc2)NC(=O)[C@H](C)NC(=O)[C@H](CC(=O)O)NC(=O)CNC(=O)[C@H]([C@@H](C)CC)NC1=O)[C@@H](C)CC [compound 1761] (Ac-IWIAAALR[R8]IGDAFN[S5]YYE-NH2; staple 9-16)	1.4
CC[C@H](C)[C@H](NC(C)=O)C(=O)N[C@@H](Cc1c[nH]c2ccccc12)C(=O)N[C@H](C(=O)N[C@@H](C)C(=O)N[C@@H](CCC(N)=O)C(=O)N[C@@H](C)C(=O)N[C@@H](CC(C)C)C(=O)N[C@@H](CCCNC(=N)N)C(=O)N[C@]1(C)CCCCCCC=CCCC[C@@](C)(C(=O)N[C@@H](Cc2ccc(O)cc2)C(=O)N[C@@H](Cc2ccc(O)cc2)C(=O)N[C@@H](C)C(=O)N[C@@H](CCCNC(=N)N)C(=O)N[C@@H](CCCNC(=N)N)C(N)=O)NC(=O)[C@H](CC(N)=O)NC(=O)[C@H](Cc2ccccc2)NC(=O)[C@H](CCC(=O)O)NC(=O)[C@H](CC(=O)O)NC(=O)CNC(=O)[C@H]([C@@H](C)CC)NC1=O)[C@@H](C)CC [compound 1628] (Ac-IWIAQALR[R8]IGDEFN[S5]YYARR-NH2; staple 9-16)	10.6
CC[C@H](C)[C@H](NC(=O)[C@H](Cc1c[nH]c2ccccc12)NC(=O)[C@H](CCC(=O)O)NC(C)=O)C(=O)N[C@@H](C)C(=O)N[C@@H](C)C(=O)N[C@@H](C)C(=O)N[C@@H](CC(C)C)C(=O)N[C@@H](CCCNC(=N)N)C(=O)N[C@]1(C)CCCCCCC=CCCC[C@@](C)(C(=O)N[C@@H](Cc2ccc(O)cc2)C(=O)N[C@@H](Cc2ccc(O)cc2)C(=O)N[C@@H](C)C(N)=O)NC(=O)[C@H](CC(N)=O)NC(=O)[C@H](Cc2ccccc2)NC(=O)[C@H](C)NC(=O)[C@H](CC(=O)O)NC(=O)CNC(=O)[C@H]([C@@H](C)CC)NC1=O [compound 1716] (Ac-EWIAAALR[R8]IGDAFN[S5]YYA-NH2; staple 9-16)	2.2
CC[C@H](C)[C@H](NC(=O)[C@H](Cc1c[nH]c2ccccc12)NC(=O)[C@H](CCC(N)=O)NC(C)=O)C(=O)N[C@@H](C)C(=O)N[C@@H](C)C(=O)N[C@@H](C)C(=O)N[C@@H](CC(C)C)C(=O)N[C@@H](CCCNC(=N)N)C(=O)N[C@]1(C)CCCCCCC=CCCC[C@@](C)(C(=O)N[C@@H](Cc2ccc(O)cc2)C(=O)N[C@@H](Cc2ccc(O)cc2)C(=O)N[C@@H](C)C(N)=O)NC(=O)[C@H](CC(N)=O)NC(=O)[C@H](Cc2ccccc2)NC(=O)[C@H](C)NC(=O)[C@H](CC(=O)O)NC(=O)CNC(=O)[C@H]([C@@H](C)CC)NC1=O [compound 1721] (Ac-QWIAAALR[R8]IGDAFN[S5]YYA-NH2; staple 9-16)	4.8
CC[C@H](C)[C@H](NC(C)=O)C(=O)N[C@@H](Cc1ccc2ccccc2c1)C(=O)N[C@H](C(=O)N[C@@H](C)C(=O)N[C@@H](C)C(=O)N[C@@H](C)C(=O)N[C@@H](CC(C)C)C(=O)N[C@@H](CCCNC(=N)N)C(=O)N[C@]1(C)CCCCCCC=CCCC[C@@](C)(C(=O)N[C@@H](Cc2ccc(O)cc2)C(=O)N[C@@H](Cc2ccc(O)cc2)C(=O)N[C@@H](C)C(N)=O)NC(=O)[C@H](CC(N)=O)NC(=O)[C@H](Cc2ccccc2)NC(=O)[C@H](C)NC(=O)[C@H](CC(=O)O)NC(=O)CNC(=O)[C@H]([C@@H](C)CC)NC1=O)[C@@H](C)CC [compound 1732] (Ac-I[2Nal]IAAALR[R8]IGDAFN[S5]YYA-NH2; staple 9-16)	13.7
CC[C@H](C)[C@H](NC(C)=O)C(=O)N[C@@H](Cc1c[nH]c2ccccc12)C(=O)N[C@H](C(=O)N[C@@H](C)C(=O)N[C@@H](CCC(N)=O)C(=O)N[C@@H](C)C(=O)N[C@@H](CC(C)C)C(=O)N[C@@H](CCCNC(=N)N)C(=O)N[C@]1(C)CCCCCCC=CCCC[C@@](C)(C(=O)N[C@@H](Cc2ccc(O)cc2)C(=O)N[C@@H](Cc2ccc(F)cc2)C(=O)N[C@@H](C)C(N)=O)NC(=O)[C@H](CC(N)=O)NC(=O)[C@H](Cc2ccccc2)NC(=O)[C@H](C)NC(=O)[C@H](CC(=O)O)NC(=O)CNC(=O)[C@H]([C@@H](C)CC)NC1=O)[C@@H](C)CC [compound 1710] (Ac-IWIAQALR[R8]IGDAFN[S5]Y[Phe(4-F)]A-NH2; staple 9-16)	4.8
CC[C@H](C)[C@H](NC(C)=O)C(=O)N[C@@H](Cc1c[nH]c2ccccc12)C(=O)N[C@H](C(=O)N[C@@H](C)C(=O)N[C@@H](CCC(N)=O)C(=O)N[C@@H](C)C(=O)N[C@@H](CC(C)C)C(=O)N[C@@H](CCCNC(=N)N)C(=O)N[C@]1(C)CCCCCCC=CCCCC2(CCCC=CCCC[C@](C)(C(=O)N[C@@H](C)C(N)=O)NC(=O)[C@H](C)NC(=O)[C@H](Cc3ccc(O)cc3)NC(=O)[C@H](Cc3ccc(O)cc3)NC2=O)NC(=O)[C@H](CC(N)=O)NC(=O)[C@H](Cc2ccccc2)NC(=O)[C@H](CCC(=O)O)NC(=O)[C@H](CC(=O)O)NC(=O)CNC(=O)[C@H]([C@@H](C)CC)NC1=O)[C@@H](C)CC (stereo partly shown) [compound 1784]	11.6
CC[C@H](C)[C@H](NC(C)=O)C(=O)N[C@@H](Cc1c[nH]c2ccccc12)C(=O)N[C@H](C(=O)N[C@@H](C)C(=O)N[C@@H](CC(C)C)C(=O)N[C@@H](C)C(=O)N[C@@H](CC(C)C)C(=O)N[C@@H](CCCNC(=N)N)C(=O)N[C@]1(C)CCCCCCC=CCCC[C@@](C)(C(=O)N[C@@H](Cc2ccc(O)cc2)C(=O)N[C@@H](Cc2ccc(O)cc2)C(=O)N[C@@H](C)C(N)=O)NC(=O)[C@H](CC(N)=O)NC(=O)[C@H](Cc2ccccc2)NC(=O)[C@H](C)NC(=O)[C@H](CC(=O)O)NC(=O)CNC(=O)[C@H]([C@@H](C)CC)NC1=O)[C@@H](C)CC [compound 1736] (Ac-IWIALALR[R8]IGDAFN[S5]YYA-NH2; staple 9-16)	11.6
CC[C@H](C)[C@H](NC(C)=O)C(=O)N[C@@H](Cc1c[nH]c2ccccc12)C(=O)N[C@H](C(=O)N[C@@H](CO)C(=O)N[C@@H](C)C(=O)N[C@@H](C)C(=O)N[C@@H](CC(C)C)C(=O)N[C@@H](CCCNC(=N)N)C(=O)N[C@]1(C)CCCCCCC=CCCC[C@@](C)(C(=O)N[C@@H](Cc2ccc(O)cc2)C(=O)N[C@@H](Cc2ccc(O)cc2)C(=O)N[C@@H](C)C(N)=O)NC(=O)[C@H](CC(N)=O)NC(=O)[C@H](Cc2ccccc2)NC(=O)[C@H](C)NC(=O)[C@H](CC(=O)O)NC(=O)CNC(=O)[C@H]([C@@H](C)CC)NC1=O)[C@@H](C)CC [compound 1733] (Ac-IWISAALR[R8]IGDAFN[S5]YYA-NH2; staple 9-16)	3.6
CC[C@H](C)[C@H](NC(C)=O)C(=O)N[C@@H](Cc1c[nH]c2ccccc12)C(=O)N[C@@H](CCCC(C)C)C(=O)N[C@@H](C)C(=O)N[C@@H](CCC(N)=O)C(=O)N[C@@H](C)C(=O)N[C@@H](CC(C)C)C(=O)N[C@@H](CCCNC(=N)N)C(=O)N[C@]1(C)CCCCCCC=CCCC[C@@](C)(C(=O)N[C@@H](Cc2ccc(O)cc2)C(=O)N[C@@H](Cc2ccc(O)cc2)C(=O)N[C@@H](C)C(N)=O)NC(=O)[C@H](CC(N)=O)NC(=O)[C@H](Cc2ccccc2)NC(=O)[C@H](C)NC(=O)[C@H](CC(=O)O)NC(=O)CNC(=O)[C@H]([C@@H](C)CC)NC1=O [compound 1678] (Ac-IW[X1]AQALR[R8]IGDAFN[S5]YYA-NH2; staple 9-16)	21.2
